Measurements from ChEMBL document CHEMBL1125487, “Acetazolamide-like carbonic anhydrase inhibitors with topical ocular hypotensive activity” (J Med Chem, 1992).
Values after ≈ are worked out from the molar mass of the structure shown. Values joined by “and” are separate entries in the source; they are usually repeats but may differ in a detail not shown here. Identical values can stand only once.

Assays:
Oryctolagus cuniculus [1] = species on record: Oryctolagus cuniculus; assay: Effect on intraocular pressure in left eye was tested by using transition ocular hypertension model at 10 min.; type: functional
Carbonic anhydrase = type: protein assay
Description: Inhibition of Carbonic anhydrase enzyme in rabbits

Oryctolagus cuniculus [2] = species on record: Oryctolagus cuniculus; assay: Effect on intraocular pressure in right eye was tested by using transition ocular hypertension model at 40 min.; type: functional
Oryctolagus cuniculus [3] = species on record: Oryctolagus cuniculus; assay: Effect on intraocular pressure in left eye was tested by using transition ocular hypertension model at 40 min.; type: functional
physchem = settings: phosphate buffer
Description: Solubility (in phosphate buffer)

Oryctolagus cuniculus [4] = species on record: Oryctolagus cuniculus; assay: Effect on intraocular pressure in left eye was tested by using transition ocular hypertension model at 20 min.; type: functional
Oryctolagus cuniculus [5] = species on record: Oryctolagus cuniculus; assay: Effect on intraocular pressure in right eye was tested by using transition ocular hypertension model at basal condition; type: functional
Oryctolagus cuniculus [6] = species on record: Oryctolagus cuniculus; assay: Effect on intraocular pressure in left eye was tested by using transition ocular hypertension model at basal condition; type: functional
Oryctolagus cuniculus [7] = species on record: Oryctolagus cuniculus; assay: Effect on intraocular pressure in right eye was tested by using transition ocular hypertension model at 20 min.; type: functional
Oryctolagus cuniculus [8] = species on record: Oryctolagus cuniculus; assay: Effect on intraocular pressure in right eye was tested by using transition ocular hypertension model at 0 min.; type: functional
Oryctolagus cuniculus [9] = species on record: Oryctolagus cuniculus; assay: Effect on intraocular pressure in right eye was tested by using transition ocular hypertension model at 10 min.; type: functional
Oryctolagus cuniculus [10] = species on record: Oryctolagus cuniculus; assay: Effect on intraocular pressure in left eye was tested by using transition ocular hypertension model at 0 min.; type: functional
[11] = buffer
Description: Solubility (in phosphate buffer)

Oryctolagus cuniculus [12] = assay: Effect on intraocular pressure in left eye was tested by using transition ocular hypertension model at 20 min. (after 8 hr administration); type: functional
Oryctolagus cuniculus [13] = assay: Effect on intraocular pressure in right eye was tested by using transition ocular hypertension model at 20 min. (after 8 hr administration); type: functional
Oryctolagus cuniculus [14] = assay: Effect on intraocular pressure in left eye was tested by using transition ocular hypertension model at 0 min. (after 4 hr administration); type: functional
Oryctolagus cuniculus [15] = assay: Effect on intraocular pressure in left eye was tested by using transition ocular hypertension model at 0 min. (after 8 hr administration); type: functional
Oryctolagus cuniculus [16] = assay: Effect on intraocular pressure in right eye was tested by using transition ocular hypertension model at 40 min. (after 8 hr administration); type: functional
Oryctolagus cuniculus [17] = assay: Effect on intraocular pressure in right eye was tested by using transition ocular hypertension model at basal condition (after 4 hr administration); type: functional
Oryctolagus cuniculus [18] = assay: Effect on intraocular pressure in right eye was tested by using transition ocular hypertension model at 0 min (after 8 hr administration); type: functional
Oryctolagus cuniculus [19] = assay: Effect on intraocular pressure in right eye was tested by using transition ocular hypertension model at 20 min. (after 4 hr administration); type: functional
Oryctolagus cuniculus [20] = assay: Effect on intraocular pressure in left eye was tested by using transition ocular hypertension model at 40 min. (after 4 hr administration); type: functional
Oryctolagus cuniculus [21] = assay: Effect on intraocular pressure in right eye was tested by using transition ocular hypertension model at 40 min. (after 4 hr administration); type: functional
Oryctolagus cuniculus [22] = assay: Effect on intraocular pressure in right eye was tested by using transition ocular hypertension model at basal condition (after 8 hr administration); type: functional
Oryctolagus cuniculus [23] = assay: Effect on intraocular pressure in left eye was tested by using transition ocular hypertension model at 10 min. (after 8 hr administration); type: functional
Oryctolagus cuniculus [24] = assay: Effect on intraocular pressure in left eye was tested by using transition ocular hypertension model at basal condition (after 4 hr administration); type: functional
Oryctolagus cuniculus [25] = assay: Effect on intraocular pressure in left eye was tested by using transition ocular hypertension model at 10 min. (after 4 hr administration); type: functional
Oryctolagus cuniculus [26] = assay: Effect on intraocular pressure in left eye was tested by using transition ocular hypertension model at 40 min. (after 8 hr administration); type: functional
Oryctolagus cuniculus [27] = assay: Effect on intraocular pressure in right eye was tested by using transition ocular hypertension model at 10 min. (after 4 hr administration); type: functional
Oryctolagus cuniculus [28] = assay: Effect on intraocular pressure in left eye was tested by using transition ocular hypertension model at 20 min. (after 4 hr administration); type: functional
Oryctolagus cuniculus [29] = assay: Effect on intraocular pressure in right eye was tested by using transition ocular hypertension model at 10 min. (after 8 hr administration); type: functional
Oryctolagus cuniculus [30] = assay: Effect on intraocular pressure in right eye was tested by using transition ocular hypertension model at 0 min (after 4 hr administration); type: functional
Oryctolagus cuniculus [31] = assay: Effect on intraocular pressure in left eye was tested by using transition ocular hypertension model at basal condition (after 8 hr administration); type: functional

Compound	IC50 (Carbonic anhydrase)	solubility (physchem)	IOP (Oryctolagus cuniculus [1])	IOP (Oryctolagus cuniculus [2])	IOP (Oryctolagus cuniculus [3])	IOP (Oryctolagus cuniculus [4])	IOP (Oryctolagus cuniculus [5])	IOP (Oryctolagus cuniculus [6])	IOP (Oryctolagus cuniculus [7])	IOP (Oryctolagus cuniculus [8])	IOP (Oryctolagus cuniculus [9])	IOP (Oryctolagus cuniculus [10])	other results
CCC(C)OC(=O)CCC(=O)Nc1nnc(S(N)(=O)=O)s1 (configuration not stated)	370 nM	3.7 mM (≈ 1240 µg/mL)	25.67 mmHg	16.67 mmHg	17.17 mmHg	21.17 mmHg	15.67 mmHg	15.33 mmHg	19 mmHg	14.67 mmHg	21.5 mmHg	15.5 mmHg	–
COC(=O)CCC(=O)/N=c1/sc(S(N)(=O)=O)nn1C	450 nM	7.3 mM (≈ 2250 µg/mL)	25.83 mmHg	17.33 mmHg	17.83 mmHg	21.5 mmHg	15.5 mmHg	15.33 mmHg	20.83 mmHg	14.83 mmHg	24.67 mmHg	16 mmHg	–
CCCCCOC(=O)CCC(=O)Nc1nnc(S(N)(=O)=O)s1	390 nM	1.3 mM (≈ 456 µg/mL)	24.5 mmHg	17.83 mmHg	18.83 mmHg	21.33 mmHg	15.83 mmHg	15.67 mmHg	20 mmHg	15 mmHg	22.67 mmHg	15.67 mmHg	–
CCOC(=O)CCC(=O)Nc1nnc(S(N)(=O)=O)s1	–	8.9 mM (≈ 2740 µg/mL)	25.67 mmHg	15.67 mmHg	17.67 mmHg	20.67 mmHg	15.33 mmHg	15.33 mmHg	17.33 mmHg	13.33 mmHg	20.33 mmHg	15.5 mmHg	–
COC(=O)CC(=O)Nc1nnc(S(N)(=O)=O)s1	940 nM	16 mM (≈ 4480 µg/mL)	27.17 mmHg	17 mmHg	19.17 mmHg	22.5 mmHg	16.17 mmHg	16.33 mmHg	19.67 mmHg	15.87 mmHg	23.17 mmHg	16.17 mmHg	–
CCCCCOC(=O)CCC(=O)/N=c1/sc(S(N)(=O)=O)nn1C	310 nM	1.4 mM (≈ 510 µg/mL)	24 mmHg	22 mmHg	17.83 mmHg	20.67 mmHg	15.67 mmHg	15.83 mmHg	25.17 mmHg	15.5 mmHg	20.67 mmHg	15.33 mmHg	–
CC(C)(C)NC[C@H](O)COc1nsnc1N1CCOCC1 [TIMOLOL]	–	–	25.84 mmHg	18.77 mmHg	18.77 mmHg	21.97 mmHg	18.53 mmHg	18.53 mmHg	19.38 mmHg	15.77 mmHg	18.57 mmHg	16.84 mmHg	–
CCCCCCCCCCCCOC(=O)CCC(=O)Nc1nnc(S(N)(=O)=O)s1	520 nM	–	–	–	–	–	–	–	–	–	–	–	–
COC(=O)CCC(=O)Nc1nnc(S(N)(=O)=O)s1	550 nM	3.2 mM (≈ 942 µg/mL)	25.5 mmHg	16.5 mmHg	16.67 mmHg	20.17 mmHg	15.67 mmHg	15.83 mmHg	19.5 mmHg	15.17 mmHg	25.33 mmHg	16.17 mmHg	–

More lines, main results first:

IC50 (Carbonic anhydrase)	solubility (physchem)	Compound	IOP (Oryctolagus cuniculus [1])	IOP (Oryctolagus cuniculus [2])	IOP (Oryctolagus cuniculus [3])	IOP (Oryctolagus cuniculus [4])	IOP (Oryctolagus cuniculus [5])	IOP (Oryctolagus cuniculus [6])	IOP (Oryctolagus cuniculus [7])	IOP (Oryctolagus cuniculus [8])	IOP (Oryctolagus cuniculus [9])	IOP (Oryctolagus cuniculus [10])	other results
–	25 mM (≈ 7710 µg/mL)	NS(=O)(=O)c1nnc(NC(=O)CCCCC(=O)O)s1	25.17 mmHg	17.17 mmHg	18 mmHg	21.67 mmHg	16.83 mmHg	16.33 mmHg	20 mmHg	16.33 mmHg	–	16.17 mmHg and 22 mmHg	–
440 nM	–	NCCCCC(=O)Nc1nnc(S(N)(=O)=O)s1	26.17 mmHg	16.83 mmHg	17.33 mmHg	21.5 mmHg	15.83 mmHg	15.5 mmHg	20.83 mmHg	15 mmHg	24 mmHg	15.83 mmHg	S [11]: 8.8 mM
480 nM	21.6 mM (≈ 7570 µg/mL)	NS(=O)(=O)c1nnc(NC(=O)CCCCCCCC(=O)O)s1	26.5 mmHg	17 mmHg	17.5 mmHg	20.67 mmHg	15.83 mmHg	16 mmHg	19.5 mmHg	16.17 mmHg	25.17 mmHg	16 mmHg	–
230 nM	< 1 mM	COC(=O)CCCCC(=O)Nc1nnc(S(N)(=O)=O)s1	–	–	–	–	–	–	–	–	–	–	–
910 nM	< 1 mM	COC(=O)CCCCCCCC(=O)Nc1nnc(S(N)(=O)=O)s1	–	–	–	–	–	–	–	–	–	–	–
520 nM	31 mM (≈ 9120 µg/mL)	NS(=O)(=O)c1nnc(NC(=O)CCCC(=O)O)s1	25.5 mmHg	16.5 mmHg	17.83 mmHg	22 mmHg	15.5 mmHg	15.5 mmHg	19 mmHg	14.67 mmHg	21.17 mmHg	15.33 mmHg	–
910 nM	11.5 mM (≈ 3550 µg/mL)	COC(=O)CCCC(=O)Nc1nnc(S(N)(=O)=O)s1	–	–	–	–	–	–	–	–	–	–	–
–	60.7 mM (≈ 17000 µg/mL)	NS(=O)(=O)c1nnc(NC(=O)CCC(=O)O)s1	26 mmHg	15.67 mmHg	19 mmHg	21.67 mmHg	15.67 mmHg	15.5 mmHg	17.17 mmHg	14.33 mmHg	19.33 mmHg	15.5 mmHg	IOP (Oryctolagus cuniculus [12]): 21.5 mmHg; IOP (Oryctolagus cuniculus [13]): 18.67 mmHg; IOP (Oryctolagus cuniculus [14]): 15.33 mmHg; IOP (Oryctolagus cuniculus [15]): 15.67 mmHg; IOP (Oryctolagus cuniculus [16]): 16.5 mmHg; IOP (Oryctolagus cuniculus [17]): 15.5 mmHg; IOP (Oryctolagus cuniculus [18]): 14.83 mmHg; IOP (Oryctolagus cuniculus [19]): 18.33 mmHg; IOP (Oryctolagus cuniculus [20]): 18.83 mmHg; IOP (Oryctolagus cuniculus [21]): 16.33 mmHg; IOP (Oryctolagus cuniculus [22]): 15.67 mmHg; IOP (Oryctolagus cuniculus [23]): 26.17 mmHg; IOP (Oryctolagus cuniculus [24]): 15.5 mmHg; IOP (Oryctolagus cuniculus [25]): 25.83 mmHg; IOP (Oryctolagus cuniculus [26]): 18.67 mmHg; IOP (Oryctolagus cuniculus [27]): 18.5 mmHg; IOP (Oryctolagus cuniculus [28]): 22 mmHg; IOP (Oryctolagus cuniculus [29]): 22.23 mmHg; IOP (Oryctolagus cuniculus [30]): 13.33 mmHg; IOP (Oryctolagus cuniculus [31]): 15.67 mmHg
